Measured values from patent US5412125A, “Dipeptidic amides derived from glycyl-serine as surfactants or hydrating agents and cosmetic, pharmaceutical or alimentary compositions containing the same” (L'Oreal, priority 1991, dated 1995).
Where a SMILES comes first, the peptide text is derived from it. The star is where a group is joined. Lauroyl = CCCCCCCCCCCC(=O)*

Test: Foaming power study (brush-developed foam in graduated cylinder)
Assay type: physicochemical
Conditions: 5% aqueous solution (weight/volume), 5 ml with 6 mg natural feminine sebum; after 180 sec stirring
Procedure: The test consists in developing the foam using a brush made of natural hog bristles (length=[…]) displaced in a plexiglass graduated cylindrical container (inside diameter=35 mm). This container is driven in a uniform circular motion which is the reverse of that described by the brush. This permits a good distribution of the foam in the graduated container despite the small amounts developed. (brush speed=100 rpm, container speed=10 rpm). The procedure is carried out using 5 ml of each solution studied to which has been added 6 mg of natural feminine sebum. The foam heights are recorded after one, two and three minutes of stirring.

## CCCCCCCCCCCC(=O)NCC(=O)NCC(=O)[O-].[Na+] [compound A, sodium salt of N-dodecanoyl-glycyl-glycine] (Lauroyl-Gly-Gly-OH)
  Foam Height (cm) at the end of a time of 180 sec: 20 cm
